Reference: ChEMBL document CHEMBL1201862, “PubChem BioAssay data set” (2004)
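Dose response: 5 concentrations. Exposure: 48 h. Format: 96-well plates. Endpoint: linear interpolation; highest concentration if not reached. GI50 is the concentration that inhibits growth by half.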 The source made the active and inactive calls. Cut-off read from the data, not from the text of the source: active = GI50 up to about 1.1 µM and inactive = higher.

What was measured:
Assay in all cases: growth of human tumour cells (NCI), 48 h
CAKI-1 = tested on: CAKI-1
CCRF-CEM = tested on: CCRF-CEM
COLO 205 = tested on: COLO 205
EKVX = tested on: EKVX
HCT-15 = tested on: HCT-15
HOP-62 = tested on: HOP-62
HOP-92 = tested on: HOP-92
K562 = tested on: K562
MOLT-4 = tested on: MOLT-4
NCI-H460 = tested on: NCI-H460
NCI-H522 = tested on: NCI-H522
OVCAR-5 = tested on: OVCAR-5
SF-539 = tested on: SF-539
SK-MEL-28 = tested on: SK-MEL-28
SK-MEL-5 = tested on: SK-MEL-5
SK-OV-3 = tested on: SK-OV-3
SN12C = tested on: SN12C
UACC-62 = tested on: UACC-62
M14 = tested on: M14
OVCAR-4 = tested on: OVCAR-4

SMILES	GI50 (CAKI-1)	GI50 (CCRF-CEM)	GI50 (COLO 205)	GI50 (EKVX)	GI50 (HCT-15)	GI50 (HOP-62)	GI50 (HOP-92)	GI50 (K562)	GI50 (MOLT-4)	GI50 (NCI-H460)	GI50 (NCI-H522)	GI50 (OVCAR-5)	GI50 (SF-539)	GI50 (SK-MEL-28)	GI50 (SK-MEL-5)	GI50 (SK-OV-3)	GI50 (SN12C)	GI50 (UACC-62)	GI50 (M14)	GI50 (OVCAR-4)
CC1OC(OC2C(OC(=O)[C@]34CCC(C)(C)CC3C3=CCC5[C@@]6(C)C[C@H](O)[C@H](OC7OC(COC8OC(CO)C(O)C(O)C8O)C(O)C(O)C7O)[C@@](C)(C(=O)O)C6CC[C@@]5(C)C3(C)CC4)OCC(O)C2O)C(O)C(O)C1OC1OCC(O)C(O)C1O (stereo partly drawn)	> 100 µM (inactive)	> 100 µM (inactive)	> 100 µM (inactive)	> 100 µM (inactive)	> 100 µM	> 100 µM (inactive)	> 100 µM (inactive)	> 100 µM (inactive)	> 100 µM (inactive)	> 100 µM (inactive)	> 100 µM (inactive)	> 100 µM (inactive)	> 100 µM (inactive)	> 100 µM (inactive)	> 100 µM (inactive)	> 100 µM (inactive)	> 100 µM (inactive)	> 100 µM (inactive)		
O=c1cc(N2CCCC2)[nH]c(=O)n1-c1ccc(Cl)cc1	> 100 µM (inactive)	> 100 µM (inactive)	> 100 µM (inactive)	> 100 µM (inactive)	> 100 µM	> 100 µM (inactive)	> 100 µM (inactive)	> 100 µM (inactive)	> 100 µM (inactive)	> 100 µM (inactive)	> 100 µM (inactive)	> 100 µM (inactive)	> 100 µM (inactive)	> 100 µM (inactive)		> 100 µM (inactive)	> 100 µM (inactive)	> 100 µM (inactive)	> 100 µM (inactive)	> 100 µM (inactive)
COC/C=C\[C@]1(O)CCCC[C@@H]1CC(OC)OC	> 100 µM (inactive)	37.1 µM (inactive)	> 100 µM (inactive)	> 100 µM (inactive)	> 100 µM	> 100 µM (inactive)	> 100 µM (inactive)	43.5 µM (inactive)	23.4 µM (inactive)	> 100 µM (inactive)	67.5 µM (inactive)	> 100 µM (inactive)	> 100 µM (inactive)	> 100 µM (inactive)	> 100 µM (inactive)	> 100 µM (inactive)		> 100 µM (inactive)	> 100 µM (inactive)	> 100 µM (inactive)
COC(=O)C(CC(=O)Nc1ccc(C)cc1)C(=O)C(=O)Nc1c(C(C)C)cccc1C(C)C (stereo not drawn)	> 100 µM (inactive)	> 100 µM (inactive)	> 100 µM (inactive)	> 100 µM (inactive)	48.6 µM	> 100 µM (inactive)	> 100 µM (inactive)	> 100 µM (inactive)	> 100 µM (inactive)	> 100 µM (inactive)	> 100 µM (inactive)	> 100 µM (inactive)	> 100 µM (inactive)	> 100 µM (inactive)		> 100 µM (inactive)	> 100 µM (inactive)	55.2 µM (inactive)	> 100 µM (inactive)	> 100 µM (inactive)
NC(=S)N/N=C1\C(=O)N(c2cccc([N+](=O)[O-])c2)C(=O)C1C(=O)Nc1cccc([N+](=O)[O-])c1 (stereo not drawn)	> 100 µM (inactive)	> 100 µM (inactive)	> 100 µM (inactive)	> 100 µM (inactive)	> 100 µM	> 100 µM (inactive)	> 100 µM (inactive)	> 100 µM (inactive)	> 100 µM (inactive)		> 100 µM (inactive)	> 100 µM (inactive)	> 100 µM (inactive)	> 100 µM (inactive)	> 100 µM (inactive)	> 100 µM (inactive)	> 100 µM (inactive)	> 100 µM (inactive)	> 100 µM (inactive)	> 100 µM (inactive)
CC(C)=CCc1c2c(c3occ(-c4ccc(O)cc4)c(=O)c3c1O)CC(C(C)(C)O)O2 (stereo not drawn) [SENEGALENSIN]	18.8 µM (inactive)	17.5 µM (inactive)	14.6 µM (inactive)		13.1 µM	18.7 µM (inactive)	18 µM (inactive)	17.2 µM (inactive)	11.7 µM (inactive)	12.5 µM (inactive)	15.8 µM (inactive)	19.1 µM (inactive)	20.1 µM (inactive)	24.3 µM (inactive)	15.2 µM (inactive)	18.8 µM (inactive)	19.6 µM (inactive)	16.4 µM (inactive)	14.5 µM (inactive)	12.9 µM (inactive)
O=S1(=O)c2ccccc2N(O)C2=NCCN21	> 100 µM (inactive)	> 100 µM (inactive)	> 100 µM (inactive)	> 100 µM (inactive)		> 100 µM (inactive)	> 100 µM (inactive)	> 100 µM (inactive)	> 100 µM (inactive)	> 100 µM (inactive)	> 100 µM (inactive)	> 100 µM (inactive)	> 100 µM (inactive)	> 100 µM (inactive)	> 100 µM (inactive)	> 100 µM (inactive)	> 100 µM (inactive)	> 100 µM (inactive)	> 100 µM (inactive)	
CC(=O)/C(=C\C1=CCCO1)C(=O)Nc1ccccc1C	> 100 µM (inactive)	> 100 µM (inactive)		> 100 µM (inactive)	> 100 µM	> 100 µM (inactive)	> 100 µM (inactive)	> 100 µM (inactive)	> 100 µM (inactive)	> 100 µM (inactive)	> 100 µM (inactive)	> 100 µM (inactive)	> 100 µM (inactive)	> 10 µM (inactive)	> 100 µM (inactive)	> 100 µM (inactive)	> 100 µM (inactive)	> 100 µM (inactive)	> 100 µM (inactive)	> 100 µM (inactive)
O=C(O)CCC(NC(=O)c1ccc(Oc2nc3ccccc3nc2-c2ccccc2)cc1)C(=O)O (stereo not drawn)	> 100 µM (inactive)	> 100 µM (inactive)	> 100 µM (inactive)	> 100 µM (inactive)	> 100 µM	> 100 µM (inactive)	> 100 µM (inactive)	> 100 µM (inactive)	> 100 µM (inactive)	> 100 µM (inactive)	> 100 µM (inactive)	> 100 µM (inactive)	> 100 µM (inactive)	> 100 µM (inactive)		> 100 µM (inactive)	> 100 µM (inactive)	> 100 µM (inactive)	> 100 µM (inactive)	> 100 µM (inactive)
O=C1CC(CC(=O)c2ccc(Br)cc2)C(O)=C1C(=O)c1ccc(Br)cc1 (stereo not drawn)	> 100 µM (inactive)	53.2 µM (inactive)	> 100 µM (inactive)	> 100 µM (inactive)	> 100 µM	94.4 µM (inactive)	30.1 µM (inactive)	44.9 µM (inactive)	41.7 µM (inactive)	50.7 µM (inactive)	51.6 µM (inactive)	> 100 µM (inactive)	56.4 µM (inactive)	> 100 µM (inactive)	> 100 µM (inactive)	> 100 µM (inactive)	> 100 µM (inactive)	42.6 µM (inactive)	85.5 µM (inactive)	
